Assay results reported in ChEMBL document CHEMBL4673200, “Hydride-induced Meisenheimer complex formation reflects activity of nitro aromatic anti-tuberculosis compounds” (RSC Med Chem, 2021).
Active and inactive are the calls of the source. The rule behind the calls is not given here.

How the values were obtained:
[1] = tested on: Mycobacterium tuberculosis variant bovis BCG; test: Inhibition of Mycobacterium bovis BCG QcrB harboring CydAB deletion mutant assessed as decrease in ATP level at 10 uM incubated for 20 hrs by Bactiter-Glo microbial cell viability assay
[2] = tested on: Mycobacterium tuberculosis variant bovis BCG; test: Inhibition of Mycobacterium bovis BCG QcrB assessed as decrease in ATP level at 10 uM incubated for 20 hrs by Bactiter-Glo microbial cell viability assay
[3] = tested on: Mycobacterium tuberculosis variant bovis BCG; test: Inhibition of Mycobacterium bovis BCG QcrB assessed as decrease in ATP level at 0.01 to 10 uM incubated for 20 hrs by Bactiter-Glo microbial cell viability assay; conditions: dose 0.01-10 µM
[4] = tested on: Mycobacterium tuberculosis variant bovis BCG; test: Inhibition of Mycobacterium bovis BCG QcrB harboring CydAB deletion mutant assessed as decrease in ATP level at 0.01 to 10 uM incubated for 20 hrs by Bactiter-Glo microbial cell viability assay; conditions: dose 0.01-10 µM

| Compound | inhibition [1] | inhibition [2] | inhibition [3] | inhibition [4] |
| --- | --- | --- | --- | --- |
| O=C(NCc1ccc(N2CCC(c3ccc(OC(F)(F)F)cc3)CC2)cc1)c1sc2c([N+](=O)[O-])cc(C(F)(F)F)cc2[n+]1[O-] | Active | Active | – | – |
| O=C(NCc1ccc(N2CCC(c3ccc(OC(F)(F)F)cc3)CC2)cc1)c1nc2cc(C(F)(F)F)cc([N+](=O)[O-])c2s1 | Active | Active | – | – |
| COc1nc2ccc(Br)cc2cc1[C@@H](c1ccccc1)[C@@](O)(CCN(C)C)c1cccc2ccccc12 | – | – | Active | Active |
| CCc1nc2ccc(Cl)cn2c1C(=O)NCc1ccc(N2CCC(c3ccc(OC(F)(F)F)cc3)CC2)cc1 [TELACEBEC] | – | – | Active | Active |
